{"source": "patent US20040152684A1", "about": "“Use of antigestagens for inhibiting accelerated endometrial maturation during infertility treatment” (priority 2001, published 2004)", "test_system": "endometrium of the superovulated pseudopregnant rabbit", "test": "Endometrial receptivity in the superovulated pseudopregnant rabbit model", "assay_type": "in vivo, New Zealand White rabbits", "settings": "for endometrial maturation (in words): compared with Group 1 controls not subject to ovarian hyperstimulation; for Mc-Phail [x ± SD] (endometrial transformation index, 1 no to 4 high transformation) / Uterine wet weight [x ± SD]: measured at d5 p.hCG; for Uteroglobin ISH [expression in luminal epithelial cells]: uteroglobin mRNA at d5 p.hCG", "procedure": "The effects of a 17α-fluoralkylated progesterone receptor antagonist on endometrial activity was evaluated in the superovulated pseudopregnant rabbit model. The pseudopregnancy of the rabbit has proven to be a model system for the human luteal phase (Beier and Kuhnel, 1973, Hormone Res. 4:1-27; Fischer et al., 1985, Fertilitat 1:101-109. In this species, ovarian stimulation induces an advancement of secretory transformation (Delbos-Winter et al., 1987, Fertilitat 3: 87-93) as well as an enhancement of gland formation.\nA total of 25 sexually mature nulliparous New Zealand White rabbits with a body weight of 3.1 to 4.0 kg were used for the analysis. The animals were divided into two control groups (groups 1 and 2) and three treatment groups (groups 3-5), with five animals in each group.\nControl group 1 received 75 international units (IU) of human chorionic gonadotropin (hCG) administered intravenously in order to induce pseudopregnancy. The day of hCG-injection was designated as day 0 of pseudopregnancy (d0 p.hCG).\nControl group 2 and treatment groups 3, 4, and 5 were gonadotropin-stimulated with 5 IU of the human menopausal gonadotropin (HMG) Pergonal® (Serono Pharma, Unterschleipheim, Germany) for 3 days, by subcutaneous injection, in order to induce multiple follicular growth. Pseudopregnancy was induced by the administration of human chorionic gonadotropin (hCG) as described for control group 1 above.\nTreatment groups 3, 4 and 5 also received a single per oral application of a 17α-fluoralkylated progesterone receptor antagonist (Compound A) two days after pseudopregnancy induction with the administration of human chorionic gonadotropin (d2 p.hCG).\nAnimals in all treatment groups were sacrificed on day 5 following pseudopregnancy induction (d5 p.hCG), and uteri were removed. Relative uterine wet weights were determined (in mg/100 g body weight) and a part of the uterus was snap frozen in liquid nitrogen for determination of uteroglobin expression by in situ hybridization. Uteroglobin expression is known as a highly sensitive parameter for determination of endometrial receptivity (Beier, H. M., 1968, Biochem Biophys. Acta. 160:289-291; Beier, H. M., 1982, in: Beier, H. M. and Karlson, P. (eds.), Proteins and Steroids in Early Pregnancy), and is a marker for secretory activity (Beier, 1976, J. Reprod. Fertil. Suppl. 25:53-69) and differentiation of the endometrial epithelium (Krusche & Beier, 1994, Ann. Anat. 176:23-31). In situ hybridization for detection of uteroglobin expression was conducted as previously described in Krusche & Beier, above. Another piece of the uterus was removed and processed for paraffin histology in order to determine the endometrial transformation status using the McPhail-Index (McPhail M k, 1934, J. Phys. 83:145-156) The McPhail Index reflects different degrees of progestogenic (transforming) activity in the rabbit endometrium:\n3. pronounced transformation", "key": {"[1]": {"settings": "Group 3: HMG + hCG, single per oral 0.1 mg/kg on d2 p.hCG"}, "[2]": {"settings": "Group 4: HMG + hCG, single per oral 1 mg/kg on d2 p.hCG"}, "[3]": {"settings": "Group 5: HMG + hCG, single per oral 10 mg/kg on d2 p.hCG"}}}
{"smiles": "CC(=O)c1ccc([C@H]2C[C@@]3(C)[C@@H](CC[C@@]3(O)C(F)(F)C(F)(F)F)[C@@H]3CCC4=CC(=O)CCC4=C32)cc1", "note": "[Compound A, 11β-(4-acetylphenyl)-17β-hydroxy-17α-(1,1,2,2,2-pentafluoroethyl)estra-4,9-dien-3-one]", "values": [{"measurement": "endometrial maturation (in words)", "setting": "0.1 mg/kg (Group 3)", "result": "roughly corresponded with that of control animals which were not subject to ovarian hyperstimulation"}, {"measurement": "endometrial maturation (in words)", "setting": "1 mg/kg (group 4)", "result": "delayed the timing of maturation beyond that observed in animals which were not subject to hyperovarian stimulation"}, {"measurement": "endometrial maturation (in words)", "setting": "10 mg/kg (group 5)", "result": "delayed the timing of maturation beyond that observed in animals which were not subject to hyperovarian stimulation"}, {"measurement": "Mc-Phail [x ± SD] (endometrial transformation index, 1 no to 4 high transformation)", "setting": "[1]", "result": "3.0 ± 0.1"}, {"measurement": "Uterine wet weight [x ± SD]", "setting": "[1]", "result": "305 ± 48", "unit": "mg/kg"}, {"measurement": "Uteroglobin ISH [expression in luminal epithelial cells]", "setting": "[1]", "result": "very high"}, {"measurement": "Mc-Phail [x ± SD] (endometrial transformation index, 1 no to 4 high transformation)", "setting": "[2]", "result": "1.5 ± 0.3"}, {"measurement": "Uterine wet weight [x ± SD]", "setting": "[2]", "result": "227 ± 56", "unit": "mg/kg"}, {"measurement": "Uteroglobin ISH [expression in luminal epithelial cells]", "setting": "[2]", "result": "very low"}, {"measurement": "Mc-Phail [x ± SD] (endometrial transformation index, 1 no to 4 high transformation)", "setting": "[3]", "result": "1.1 ± 0.3"}, {"measurement": "Uterine wet weight [x ± SD]", "setting": "[3]", "result": "144 ± 30", "unit": "mg/kg"}, {"measurement": "Uteroglobin ISH [expression in luminal epithelial cells]", "setting": "[3]", "result": "absent"}]}
